Experimental data from patent US4359473A, “α-Amino deoxy clavulanic acid antibacterial agents” (priority 1977, dated 1982).
Blank lines part the entries; values can stand above or below the molecule they belong to.

What was measured:
E. Coli E96 = assay: Subcutaneous synergistic activity with amoxycillin, intraperitoneal mouse infection, E. Coli E96; format: in vivo
Description: (§1) 9-N-Isobutylaminodeoxyclavulanic acid and 9-N-n-butylaminodeoxyclavulanic acid have been compared as synergists in vivo by the subcutaneous route against 2 strains of RTEM E. Coli in intraperitoneal mouse infections.
(§2) Comparative subcutaneous synergistic activity of 9-N-Isobutylaminodeoxyclavulanic acid and 9-N-n-butylaminodeoxyclavulanic acid with amoxycillin against mouse E. Coli infections

Aqueous solubility = format: physicochemical
E. coli JT 39 [1] = assay: Effectiveness as synergist with amoxycillin, peritoneal infection due to E. coli JT 39 (Demonstration 2); format: in vivo; details: for ED50: Escherichia coli, JT39, sc, Test 1, alone, sub-cutaneous 1 and 5 hours post infection, read-out: CD50 (approximate), compound alone
E. Coli E124 = assay: Subcutaneous synergistic activity with amoxycillin, intraperitoneal mouse infection, E. Coli E124; format: in vivo
Description: as §1, §2

[2] = system: staphylococcus aureus Russell; assay: Effectiveness as anti-bacterial, mice infected with Staphylococcus aureus Russell (thigh lesion); format: in vivo; details: for Protection (%): subcutaneous at 1, 3 and 5 hours post infection
Procedure: Mice were infected with staphylococcus aureus Russell (thigh lesion with 0.2 ml im) and thereafter were dosed subcutaneously at 1, 3 and 5 hours post infection with a solution of the test compound.

[3] = system: β-lactamase producing strains of gram-negative and gram-positive bacteria; assay: Synergistic/antibacterial activity in-vivo, general statement; details: with penicillins and cephalosporins
in vivo = details: mouse, ip
LD50 in mice = details: mouse, in vivo, sc
E. coli JT 39 [4] = assay: In-vivo synergistic effect with amoxycillin in mice infected by E. coli JT 39
Procedure: This microorganism produces considerable quantities of a β-lactamase which degrades amoxycillin so reducing its antibaceterial effectiveness in-vivo.
(Sodium amoxycillin was prepared by dissolving amoxycillin trihydrate in
sodium carbonate/sodium bicarbonate buffer).

aqueous solubility (Aqueous solubility): increased aqueous solubility
SMILES: CC(C)CNC/C=C1\O[C@@H]2CC(=O)N2[C@H]1C(=O)O [9-N-Isobutylaminodeoxyclavulanic acid]
relative synergist activity in vivo, 2 strains of RTEM E. Coli (E. Coli E96; subcutaneous route, intraperitoneal mouse infections, both strains (E96, E124)): more active then the n-butylamine

SMILES: CC1(C)S[C@@H]2[C@H](NC(=O)[C@H](N)c3ccc(O)cc3)C(=O)N2[C@H]1C(=O)O [Amoxycillin]
CD50, amoxycillin alone (E. Coli E96; E. Coli E96, P409, alone): > 1000 mg/kg × 2
ED50 (E. Coli E96; Escherichia coli, sc, E. Coli E96, P392, alone, read-out: CD50, amoxycillin alone): > 1000 mg/kg
ED50 (E. coli JT 39 [1]): 1000 mg/kg
CD50 (approximate), compound alone (E. coli JT 39 [1]; Test 2, sub-cutaneous 1 and 5 hours post infection): 1000 mg/kg × 2
CD50 (approximate), compound alone (E. coli JT 39 [1]; Test 3, sub-cutaneous 1 and 5 hours post infection): 1000 mg/kg × 2
CD50, amoxycillin alone (E. Coli E124; E. Coli E124, P412): > 1000 mg/kg × 2
ED50 (E. Coli E124; Escherichia coli, sc, E. Coli E124, P397, alone, read-out: CD50, amoxycillin alone): > 1000 mg/kg

SMILES: Cc1nnc(SCC2=C(C(=O)O)N3C(=O)[C@@H](NC(=O)Cn4cnnn4)[C@H]3SC2)s1 [Cefazolin, reference compound]
ED50 (E. coli JT 39 [1]): 10.5 mg/kg
Protection (%) ([2]; 20 mg/kg): 39.0%
Protection (%) ([2]; 50 mg/kg): 71.2%

SMILES: Cc1onc(-c2ccccc2Cl)c1C(=O)N[C@@H]1C(=O)N2[C@@H]1SC(C)(C)[C@@H]2C(=O)O [Cloxacillin, reference compound]
Protection (%) ([2]; 20 mg/kg): 61.6%
Protection (%) ([2]; 50 mg/kg): 91.7%

SMILES: O=C(O)[C@H]1/C(=C/CNCc2ccccc2)O[C@@H]2CC(=O)N21 [Example 2, 9-N-Benzylaminodeoxyclavulanic acid]
synergistic activity in-vivo [3]: particularly good synergistic activity in-vivo
LD50 (in vivo): > 1000 mg/kg
LD50 (LD50 in mice): > 500 mg/kg
protecting amoxycillin from the β-lactamase of E. coli JT 39 in-vivo (E. coli JT 39 [4]; administered orally): less effective per given weight than when administered sub-cutaneously
toxic effects during these tests (E. coli JT 39 [4]; in-vivo synergy tests, mice): not observed to produce toxic effects
Protection (%) ([2]; 5 mg/kg): 69.8%
Protection (%) ([2]; 10 mg/kg): 89.7%
Protection (%) ([2]; 20 mg/kg): 99.3%
effectiveness in treating certain infections due to Staphylococcus aureus Russell ([2]; compared with ampicillin, cloxacillin or cefazolin): more effective than ampicillin, cloxacillin or cefazolin

SMILES: COc1ccc(CNC/C=C2\O[C@@H]3CC(=O)N3[C@H]2C(=O)O)cc1 [Example 7, 9-N-(4-Methoxybenzyl)aminodeoxyclavulanic acid]
Protection (%) ([2]; 5 mg/kg): 28.0%
Protection (%) ([2]; 10 mg/kg): 80.8%
Protection (%) ([2]; 20 mg/kg): 87.6%

SMILES: CC1(C)S[C@@H]2[C@H](NC(=O)[C@H](N)c3ccc(O)cc3)C(=O)N2[C@H]1C(=O)O [Sodium amoxycillin, reference compound]
ED50 (E. coli JT 39 [4]; Escherichia coli, JT39, sc, sub-cutaneous, mice, alone, read-out: CD50, sodium amoxycillin alone): 200 mg/kg
